Entries after “also recorded” stand apart in the source; their conditions may differ. Marks after values point to notes of the source that are not given here.
Experiments:
[1] = Fluorescent imaging of lung distribution of inhaled drug with IR780 tracer; assay type: in vivo, rat; conditions: inhalation with IR780 tracer, 2 min exposure
Description: The spatial distribution of inhaled PK10453 in the lung was evaluated by fluorescent imaging. For this study, a near IR fluorescent tracer, IR-780, was added to the drug solution in the nebulizer. In this way, the dried aerosol particles contained both the drug and IR tracer. After a two minute exposure, animals were placed under general anesthesia underwent intubation via tracheostomy, and the lungs were excised. OCT/PBS was infused via the pulmonary artery, the lung insufflated with air, and the lungs frozen in the vapor phase of liquid nitrogen. Serial approximate 2 mm sections of the lung were made and imaged on a Licor Odyssey Imager.

rat MCT model of PAH = test: Efficacy study in the rat MCT model; assay type: in vivo
Description: Efficacy Study in the Rat MCT Model.
Male Sprague Dawley rats received MCT 60 mg/kg IPMCT, and after 3 weeks, PK10453 or vehicle control were administered by inhalation. Four groups were studied: vehicle control (4 min exposure) and three treatment groups of PK10453 with exposure times 2 minutes (D2), 4 minutes (D4), or 8 minutes (D8) three times a day. These regimens were administered for two weeks. The vehicle consisted of aerosolized IM tosylic acid neutralized with ammonia vapor as described above. The pH of a solution prepared by dissolving captured aerosol particles in water was measured for every dose and was consistently in the range of 5.5-6.0. At the end of the study, the RV systolic pressure (RVSP) was measured, and the heart chambers dissected and weighed.

rat MCT+PN model of PAH [2] = test: Rat MCT+PN model efficacy: PV loops, RV hypertrophy; assay type: in vivo; conditions: for HR / EF / ESP / CO / EDP / EDV / ESV / SV / SW: MCT+PN, mean, n=4; for EF / ESP: RV
Description: In a separate cohort of animals, the MCT+PN model was developed as described above, and PK10453 was then administered for 4 minutes or 8 minutes three times a day to the drug treated group. The vehicle control group underwent 4 minute exposures three times a day. Pressure Volume (PV) loops were obtained with an admittance system (Scisense, Inc.) after 14 days of treatment, while rats were under general anesthesia with isoflurane and 100% FiO2.
PV loop study. The RV end systolic pressure (ESP) was lower and the RV ejection fraction (EF) was higher in both the D4 and D8 treatment groups compared to vehicle control. Cardiac output in the D8 group was increased compared to the Vehicle group. The study animals underwent left pneumonectomy followed 7 days later by MCT 60 mg/kg IP. Two weeks after MCT administration, PK10453 or vehicle were given by inhalation three times a day for two weeks. PV loops were acquired at the end of this period. With respect to Table 3: V=vehicle; D4=4 minute inhalation PK10453; D8=8 minute inhalation PK10453; n=4 each group; *p<0.001; **p≦0.01; §p<0.05 vs. V.

rat MCT+PN model of PAH [3] = test: Histology and morphometric analysis of pulmonary arterioles, MCT+PN model; assay type: in vivo
Excerpt: Histology and Morphometric Analysis.
At the end of the study, the heart and lungs were removed from ventilated animals under general anesthesia. Heparinized saline was infused under pressure through the main pulmonary artery. The right upper lobe was immediately tied off and placed in liquid nitrogen for Western blot and NanoPro 100 assay analysis. The heart was removed, and the RV free wall, interventricular septum and LV free wall dissected and weighed. Buffered formalin (10%) was infused under pressure both through the pulmonary artery and the trachea. Morphometric analysis was performed on H&E stained formalin fixed tissue sectioned at 8 μm. The media area and lumen area of pulmonary arterioles were measured with Image J software by a technician blinded to treatment group. Measurements were made on 20 pulmonary arterioles per section. The ratio of the lumen area to the total media area was determined. This ratio normalizes the variation in total pulmonary arteriole area.

pSTAT3/STAT3 = test: NanoPro immunoassay of lung extracts, MCT+PN model; assay type: in vivo, rat; conditions: D4 and D8 groups compared to vehicle
Description: (§1) NanoPro Immunoassay. Relative differences in phosphorylated ERK1/2 and STAT isoforms were measured with a NanoPro100® immunoassay system (Protein Simple/Cell Biosciences, CA). See Fan et al., “Nanofluidic proteomic assay for serial analysis of oncoprotein activation in clinical specimens.” Nat Med 15:566-571 (2009).

[4] = system: phospho-ERK1/2 and total ERK1/2; test: NanoPro immunoassay of lung homogenates, MCT+PN model; assay type: in vivo, rat; conditions: D4 and D8 groups compared to vehicle
Description: as §1

[5] = Systemic blood pressure study in ambulatory MCT treated rats; assay type: in vivo, rat; conditions: inhaled
Description: Systemic Blood Pressure Study.
The effect of PK10453 on systemic BP was studied in ambulatory MCT treated rats with DSI PAC40 transmitters implanted in the descending aorta. Three weeks after administration of MCT 60 mg/kg IP, animals inhaled PK10453 or vehicle three times/day with 4 minute exposure each dose for 7 days. Blood pressure was recorded before each morning dose.

[6] = Body weight, MCT+PN model (FIG. 11); assay type: in vivo, rat; conditions: treated vs. vehicle groups
Excerpt: FIG. 11 is a graphic representation of subject body weight in vehicle administered and PK10453 treated subjects, where squares indicate vehicle treated (n=10), triangles indicate PK10453 D4 group (n=10), and diamonds indicate PK10453 D8 group (n=6).

[7] = Two chamber plethysmography, rat MCT+PN model; assay type: in vivo; conditions: for TV / MV: MCT+PN, mean
Description: Plethysmography was performed with an EMKA dual chamber plethysmograph and IOX software. Parameters measured included breathing frequency, tidal volume, minute ventilation, peak inspiratory and expiratory flow, and airway resistance (SRaw). Animals were acclimatized to the plethysmograph for three days prior to first data acquisition. Measurements were made prior to the first dose of drug and at the study's end.

COc1cc(-c2cncc(N[C@@H](C)c3cccc(NC(=O)c4cncc(C)c4)c3)n2)ccc1O [PK10453, (S)—N-(3-(1-((6-(4-hydroxy-3-methoxyphenyl)pyrazin-2yl)amino)ethyl)phenyl)-5-methylnicotinamide]
fluorescence intensity distribution in lung sections [1]: well distributed throughout the lungs | RVSP (rat MCT model of PAH; D2, 2 min inhalation three times a day, two weeks): 51.4±6.5 mm Hg | reduction in RVSP compared to vehicle (rat MCT model of PAH; D4): 44% | RVSP (rat MCT model of PAH; D4, 4 min inhalation three times a day, two weeks): 44.4±3.8 mm Hg | reduction in RVSP compared to vehicle (rat MCT model of PAH; D8): 54% | RVSP (rat MCT model of PAH; D8, 8 min inhalation three times a day, two weeks): 37.1±4.5 mm Hg | decrease of RV systolic pressure (rat MCT model of PAH; inhaled, dose group not stated): 50% | RV hypertrophy, ratio (RV+IVS)/LV weight (rat MCT model of PAH; inhaled, two weeks): significant reduction | RVSP (rat MCT+PN model of PAH [2]; D4 MCT+PN group (n=4)): 43.2±6.1 mm Hg | RVSP (rat MCT+PN model of PAH [2]; D8 MCT+PN group (n=4)): 38.4±1.4 mm Hg | HR (rat MCT+PN model of PAH [2]; D4, 4 minute inhalation 3x/day, two weeks): 288 bpm | EF (rat MCT+PN model of PAH [2]; D4): 65.4** | ESP (rat MCT+PN model of PAH [2]; D4): 43.20* mm Hg | CO (rat MCT+PN model of PAH [2]; D4): 77.59 mL/min | EDP (rat MCT+PN model of PAH [2]; D4): 2.62§ mm Hg | EDV (rat MCT+PN model of PAH [2]; D4): 408.95 µL | ESV (rat MCT+PN model of PAH [2]; D4): 144.14 µL | SV (rat MCT+PN model of PAH [2]; D4): 264.81 µL | SW (rat MCT+PN model of PAH [2]; D4): 9818 | HR (rat MCT+PN model of PAH [2]; D8, 8 minute inhalation 3x/day, two weeks): 315 bpm | EF (rat MCT+PN model of PAH [2]; D8): 67.1** | ESP (rat MCT+PN model of PAH [2]; D8): 38.44* mm Hg | CO (rat MCT+PN model of PAH [2]; D8): 105.1** ml/min | EDP (rat MCT+PN model of PAH [2]; D8): 4.87 mm Hg | EDV (rat MCT+PN model of PAH [2]; D8): 488.68 µL | ESV (rat MCT+PN model of PAH [2]; D8): 155.40 µL | SV (rat MCT+PN model of PAH [2]; D8): 333.28** μl | SW (rat MCT+PN model of PAH [2]; D8): 5481 | RV hypertrophy (rat MCT+PN model of PAH [2]; rat MCT+PN, inhaled, two weeks): significant decrease | lumen area to media area ratio (L/M) (rat MCT+PN model of PAH [3]; D4): 0.75±0.14 | lumen area to media area ratio (L/M) (rat MCT+PN model of PAH [3]; D8): 1.17±0.07 | pSTAT3/STAT3 ratio (pSTAT3/STAT3): significant reduction | pERK1/ERK1 [4]: significant reductions | ppERK1/ERK1 [4]: significant reductions | effect on systemic blood pressure [5]: did not have an adverse effect; also recorded: no significant effect | body weight [6]: trend to a slower rate of decline | TV ([7]; D4, Day1, prior to first dose): 1.00 mL | MV ([7]; D4, Day15): 176.12§ ml/min | TV ([7]; D4, Day15): 0.85 mL | TV ([7]; D8, Day1, prior to first dose): 0.74 mL | MV ([7]; D8, Day15): 128.49 mL/min | TV ([7]; D8, Day15): 0.63 mL | effect on lung function ([7]; inhaled, 2 wk administration course): did not appear to adversely affect; also recorded: no adverse effect

Source: patent US20150352111A1, “Therapeutic Indications of Kinase Inhibitors” (Pulmokine, Inc., priority 2013, published 2015)
